Experimental findings from US20240307361A1, “METHOD FOR DIAGNOSING AND TREATING IRRITABLE BOWEL SYNDROME” (Centre for Chinese Herbal Medicine Drug Development Limited, priority 2023, published 2024) are described below.

The target in experiment [1] is T1, TAAR1 (Mus musculus, UniProt Q923Y8).
T1 construct: is expressed in EC cells in the GI tract; from tissue; host or cells: living mice (conventional, antibiotic-treated, or wild-type littermates of Taar1 KO, C57Bl/6J)
Put plainly: TAAR1 antagonist EPPTB in phenethylamine-treated mice. In kind it is in vivo. The following applies: EPPTB 10 mg/kg, phenethylamine 10 mg/kg, p<0.05. The method, then:
To study phenethylamine and tryptamine effects on 5-HT production, phenethylamine and tryptamine at a dosage of 2 mg/kg, 5 mg/kg and 10 mg/kg (dissolved in 0.5% CMC-Na, sodium carboxymethyl cellulose) were administered to mice by oral gavage. Mice treated with/without phenethylamine and tryptamine were sacrificed under isoflurane anesthesia. Biological samples including serum, duodenum, ileum, proximal colon and distal colon tissues and luminal contents in each intestinal segments were collected at indicated dosages and times and stored at −80° C. until analysis.
(§1) For the fecal pellet water content test, 1.5 mL Eppendorf tubes were pre-weighed and used to collect fecal pellets from mice immediately after defecation. The tubes were then closed to measure wet weight. Afterward, the tubes were opened and placed in an oven at 60° C. overnight to measure the dry weight. Fecal pellet water content was measured by subtracting the dry weight from the wet weight and normalizing it to the wet pellet mass. Fecal pellets from mice were also counted within 2 h of the defecation frequency test.
(§2) Carmine red assay: Mice were administered 300 μL of 6% carmine red solution (prepared by 0.5% methylcellulose) by oral gavage to measure the GI transit time after treatment with phenethylamine at the indicated dosages. The mice were placed on white sheet paper to track the red pellet in their cages after oral gavage. The total time taken for the appearance of the first red pellet after oral gavage was recorded as gut transit time.
Colonic tissues were lysed in RIPA buffer containing protease inhibitor cocktails in a tissuelyzer. The tissue lysates were centrifuged at 15,000 rpm for 15 min at 4° C. and quantified by BCA kit for protein concentration. The protein content normalized supernatant was mixed with 5× loading buffer and heated at 98° C. in a dry bath for 10 min. The samples were evaluated according to the western blotting protocol (Abcam). The blots were incubated with HRP-conjugated anti-rabbit IgG or anti-mouse IgG and reacted with enhanced chemiluminescence.

Experiment [2] has as its target T1, TAAR1. Nature of the experiment: EPPTB in antibiotic-treated mice transplanted with IBS-D fecal microbiota (FMT). In kind it is in vivo. As to conditions: EPPTB 10 mg/kg, p<0.05. The protocol: A broad-spectrum antibiotic mixture (ABX) containing vancomycin (100 mg/kg), neomycin (200 mg/kg), metronidazole (200 mg/kg), and ampicillin (200 mg/kg) was used to establish an antibiotic-treated mouse model. Briefly, the antibiotic mixture was administered to mice by oral gavage for 10 consecutive days prior to fecal microbial transplantation (FMT) or the colonization study. For the fecal pellet water content test, 1.5 mL Eppendorf tubes were pre-weighed and used to collect fecal pellets from mice immediately after defecation. The tubes were then closed to measure wet weight. Afterward, the tubes were opened and placed in an oven at 60° C. overnight to measure the dry weight. Fecal pellet water content was measured by subtracting the dry weight from the wet weight and normalizing it to the wet pellet mass. Fecal pellets from mice were also counted within 2 h of the defecation frequency test. Carmine red assay: […] The mice were placed on white sheet paper to track the red pellet in their cages after oral gavage. The total time taken for the appearance of the first red pellet after oral gavage was recorded as gut transit time. Fecal samples from IBS-D patients and HC participants (n=8/group) were prepared as suspensions in PBS at a concentration of (100 mg/mL). […] After the FMT, GI transit, stool consistency, and defecation frequency were measured. […]

In experiment [3] the target is T1, TAAR1. Put plainly: EPPTB on phenethylamine-induced 5-HT elevation in mice intestine tissues cultured ex vivo. As to conditions: EPPTB 50 μM, p<0.05, FIG. 5I. In kind it is cell-based. The method, then:
Mouse and human colonic tissues were collected as previously described. To investigate the effects of phenethylamine on 5-HT levels in mouse and human colon tissues, the colonic tissues were cut into small pieces (0.5 cm) and placed in a 12-well cell culture plate. Colon pieces were added to DMEM/F12 medium containing 5% fetal bovine serum, penicillin-streptomycin (1×), and gentamycin (20 μg/ml), followed by treatment with phenethylamine and EPPTB, as indicated. Colon pieces were incubated at 37° C. with 5% CO2 and 95% air. A 200 μL volume of medium was collected from each well at the indicated time points for the analysis of 5-HT.

The target of experiment [4] is T1, TAAR1. Put plainly: EPPTB in antibiotic-treated mice colonized with R. gnavus (ATCC 29149). As to conditions: EPPTB 10 mg/kg, p<0.05. The format is in vivo. The protocol: A broad-spectrum antibiotic mixture (ABX) containing vancomycin (100 mg/kg), neomycin (200 mg/kg), metronidazole (200 mg/kg), and ampicillin (200 mg/kg) was used to establish an antibiotic-treated mouse model. Briefly, the antibiotic mixture was administered to mice by oral gavage for 10 consecutive days prior to fecal microbial transplantation (FMT) or the colonization study.
R. gnavus (strain ATCC 29149) was first grown on tryptic soy broth (TSB) agar plates and cultured in TSB broth using a single colony. R. gnavus (strain ATCC 29149) was collected from the medium by centrifuging at 3,500 rpm for 10 min at room temperature. These bacterial strains were then reconstituted in 200 μL of sterilized phosphate-buffered saline and administered to antibiotic-treated mice by oral gavage. Fecal samples were collected daily to measure fecal phenethylamine levels in antibiotic-treated mice before and after oral administration of bacterial strains.
as §1, §2

SMILES strings stand for the structures.

T1 sequence (Q923Y8 whole entry): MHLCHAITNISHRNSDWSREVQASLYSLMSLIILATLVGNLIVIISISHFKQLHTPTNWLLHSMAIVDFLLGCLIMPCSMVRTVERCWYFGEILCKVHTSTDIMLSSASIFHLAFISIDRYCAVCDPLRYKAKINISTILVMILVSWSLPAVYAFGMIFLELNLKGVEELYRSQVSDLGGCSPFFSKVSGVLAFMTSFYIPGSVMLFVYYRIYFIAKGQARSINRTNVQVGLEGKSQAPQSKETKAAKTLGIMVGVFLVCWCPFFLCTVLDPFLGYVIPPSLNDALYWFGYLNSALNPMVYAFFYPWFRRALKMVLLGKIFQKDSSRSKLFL

For the compound `CCOc1cccc(NC(=O)c2ccc(N3CCCC3)c(C(F)(F)F)c2)c1` [EPPTB, N-(3-ethoxy-phenyl)-4-pyrrolidin-1-yl-3-trifluoromethyl-benzamide], at TAAR1 [1] (mice), the “phenethylamine-induced 5-HT production” value is listed as “suppressed”; the “phenethylamine-induced 5-HTP/Trp and 5-HT/5-HTP ratios” value is “inhibited by EPPTB treatment”; the “phenethylamine-induced GI transit acceleration” value was “suppressed”; the “phenethylamine-induced colonic secretion increase” value is recorded as “suppressed”. The “phenethylamine-induced increased levels of serum 5-HTP” value on TAAR1 [1] (mice) is given as “inhibited by EPPTB treatment”. Moreover, the “phenethylamine-induced activation of PKA and CaMKII” value at TAAR1 [1] (proximal colonic tissues of mice) is “inhibited”. Moreover, the “pathological changes induced by transplantation of IBS-D fecal microbiota (colonic 5-HT, GI transit, defecation frequency)” value on TAAR1 [2] was “largely suppressed”. For the same compound, on TAAR1 [3], the “phenethylamine-induced 5-HT elevation in mice intestine tissues cultured ex vivo” value is recorded as “suppressed”. Also, at TAAR1 [4], the “R. gnavus-induced 5-HT elevation in serum” value is on record as “suppressed by EPPTB treatment”, the “R. gnavus-induced accelerated GI transit” value is listed as “suppressed by EPPTB treatment” and the “R. gnavus-induced increased fecal water content” value was “suppressed by EPPTB treatment”.
